Experimental data: ChEMBL document CHEMBL1201862, “PubChem BioAssay data set” (2004)
Active and inactive are the calls of the source.

Experiments:
[1] = target: 5-hydroxytryptamine receptor 2A (Mus musculus, UniProt P35363); type: functional, cell-based;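 further: CHO-K1 cells with tagged receptor and beta-arrestin; agonist potency measured as compound-induced activation of the receptor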
Mu-type opioid receptor = Mu-type opioid receptor (Homo sapiens, UniProt P35372); type: functional, cell-based;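 further: U2OS cells with beta-arrestin recruitment to OPRM1 by beta-gal complementation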
Mu-type opioid receptor, sequence (P35372 whole entry): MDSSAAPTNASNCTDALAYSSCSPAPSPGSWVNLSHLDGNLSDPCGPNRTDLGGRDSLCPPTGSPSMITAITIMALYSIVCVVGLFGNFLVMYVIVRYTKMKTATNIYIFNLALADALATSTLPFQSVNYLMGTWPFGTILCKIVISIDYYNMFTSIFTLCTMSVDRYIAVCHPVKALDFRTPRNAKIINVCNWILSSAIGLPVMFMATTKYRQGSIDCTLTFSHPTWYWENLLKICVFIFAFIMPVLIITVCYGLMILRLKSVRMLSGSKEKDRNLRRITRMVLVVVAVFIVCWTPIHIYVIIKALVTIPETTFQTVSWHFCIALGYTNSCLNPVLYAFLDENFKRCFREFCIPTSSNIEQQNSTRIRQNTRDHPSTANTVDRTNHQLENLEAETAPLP

[2] = target: Tyrosyl-DNA phosphodiesterase 2 (Homo sapiens, UniProt O95551); assay: human TDP2 enzyme inhibitors, dose response, biochemical, epi absorbance, IC50 (AID 743297)
Tyrosyl-DNA phosphodiesterase 2, sequence (O95551 whole entry): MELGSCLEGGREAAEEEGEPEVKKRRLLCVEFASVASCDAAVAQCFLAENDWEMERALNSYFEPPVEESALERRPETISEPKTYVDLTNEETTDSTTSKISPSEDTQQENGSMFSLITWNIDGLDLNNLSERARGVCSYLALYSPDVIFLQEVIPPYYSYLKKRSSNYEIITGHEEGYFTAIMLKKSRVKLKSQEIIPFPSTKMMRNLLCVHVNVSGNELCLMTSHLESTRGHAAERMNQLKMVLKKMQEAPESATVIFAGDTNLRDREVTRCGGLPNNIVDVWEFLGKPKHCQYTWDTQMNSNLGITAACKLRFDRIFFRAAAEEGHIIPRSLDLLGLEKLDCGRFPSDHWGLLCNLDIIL

[3] = target: Dual specificity tyrosine-phosphorylation-regulated kinase 1A (Rattus norvegicus, UniProt Q63470); type: biochemical, Homo sapiens
[4] = HepG2 cell cytotoxicity, dose response, cytotoxicity control, ATP luminescence, cherry-pick, activator set 2 (AID 1053143); type: functional, cell-based
[5] = target: T1, Trace amine-associated receptor 1 (Homo sapiens, UniProt Q96RJ0); assay: Counterscreen for agonists of the human trace amine associated receptor 1 (hTAAR1): Fluorescence-based cell-based high throughput dose response assay to identify hTAAR1 agonist that also desensitize TAAR1 receptor response.; type: functional
T1 sequence (Q96RJ0 whole entry): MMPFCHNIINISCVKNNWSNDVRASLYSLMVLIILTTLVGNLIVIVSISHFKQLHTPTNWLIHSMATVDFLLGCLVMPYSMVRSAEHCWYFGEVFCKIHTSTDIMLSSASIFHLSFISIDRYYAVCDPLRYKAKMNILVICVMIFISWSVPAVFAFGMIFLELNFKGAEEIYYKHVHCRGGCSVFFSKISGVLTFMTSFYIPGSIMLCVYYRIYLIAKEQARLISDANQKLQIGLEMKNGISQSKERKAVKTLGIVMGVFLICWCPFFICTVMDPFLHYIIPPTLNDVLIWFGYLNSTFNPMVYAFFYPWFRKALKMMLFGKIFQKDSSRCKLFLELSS

[6] = cytotoxicity toward NIH3T3 fibroblasts, dose response, counter-screen, cell-based, ATP luminescence, mouse fibroblasts (AID 2010); type: functional;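 further: cells exposed to compound for about 90 hours before reading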
[7] = inhibitors of intracellular T. cruzi replication, confirmation, NIH3T3 host cells, beta-gal luminescence (AID 2044); type: functional, cell-based;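 further: intracellular parasites grown in NIH/3T3 mouse fibroblasts as host cells; luminescent beta-galactosidase reporter signal from transgenic T. cruzi replicating inside host cells; inhibitors lower the luminescence signal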
cells [8] = type: functional, cell-based
cells [9] = type: functional, cell-based; remark: listed apart in the source
[10] = target: T1, Trace amine-associated receptor 1; assay: Fluorescence-based cell-based high throughput dose response assay to identify agonists of the human trace amine associated receptor 1 (TAAR1).; type: functional
[11] = target: Luciferin 4-monooxygenase (Photinus pyralis, UniProt P08659); assay: firefly luciferase enzyme inhibitors, dose response, biochemical, luminescence (AID 1891)
Luciferin 4-monooxygenase, sequence (P08659 whole entry): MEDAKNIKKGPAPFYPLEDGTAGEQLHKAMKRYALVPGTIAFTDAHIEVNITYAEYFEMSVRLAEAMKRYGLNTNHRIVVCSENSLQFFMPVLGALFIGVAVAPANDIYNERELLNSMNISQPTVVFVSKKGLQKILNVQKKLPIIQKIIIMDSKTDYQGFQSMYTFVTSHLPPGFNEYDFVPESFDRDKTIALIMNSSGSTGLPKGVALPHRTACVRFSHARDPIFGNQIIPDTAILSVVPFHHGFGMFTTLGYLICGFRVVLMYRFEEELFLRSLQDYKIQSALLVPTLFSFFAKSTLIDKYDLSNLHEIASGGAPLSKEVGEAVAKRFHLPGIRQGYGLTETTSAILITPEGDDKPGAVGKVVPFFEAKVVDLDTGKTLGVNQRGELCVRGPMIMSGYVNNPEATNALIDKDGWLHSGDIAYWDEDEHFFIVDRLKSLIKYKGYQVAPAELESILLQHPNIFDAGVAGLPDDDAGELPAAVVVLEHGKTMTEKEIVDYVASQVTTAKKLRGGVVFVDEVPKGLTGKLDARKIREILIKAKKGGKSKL

[12] = Luminescence Cell-Based Dose Confirmation HTS to Identify Inhibitors of Platelet Dense Granule Release. [Related pubchem assays: 1663 (Primary HTS), 1678 (Summary of Project)]; type: functional
Beta Lactamase = Beta Lactamase (Pseudomonas aeruginosa, UniProt Q932Y6); assay: beta-lactamase reporter inhibitor potency, dose response, artefact control for NOD2-RIPK2 interaction inhibitor project, BLA reporter cells, FRET fluorescence (AID 651552); type: functional, cell-based
Beta Lactamase, sequence (Q932Y6 whole entry): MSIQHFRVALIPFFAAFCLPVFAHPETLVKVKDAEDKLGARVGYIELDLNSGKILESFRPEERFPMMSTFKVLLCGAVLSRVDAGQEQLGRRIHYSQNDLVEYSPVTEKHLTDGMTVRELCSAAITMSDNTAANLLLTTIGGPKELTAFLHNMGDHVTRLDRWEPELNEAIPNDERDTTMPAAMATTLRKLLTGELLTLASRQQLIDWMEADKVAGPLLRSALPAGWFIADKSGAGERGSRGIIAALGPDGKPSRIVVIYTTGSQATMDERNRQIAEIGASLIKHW

Hexokinase = target: T2, Hexokinase (Trypanosoma brucei, UniProt Q38C41); assay: Confirmation assay for inhibitors of Trypanosoma brucei hexokinase 1-Analogue-first series. [Related pubchem assays (depositor defined):AID1430, AID1632, AID2516, AID2560, AID2579, AID2600, AID449725, AID492951]; type: functional
T2 sequence (Q38C41 whole entry): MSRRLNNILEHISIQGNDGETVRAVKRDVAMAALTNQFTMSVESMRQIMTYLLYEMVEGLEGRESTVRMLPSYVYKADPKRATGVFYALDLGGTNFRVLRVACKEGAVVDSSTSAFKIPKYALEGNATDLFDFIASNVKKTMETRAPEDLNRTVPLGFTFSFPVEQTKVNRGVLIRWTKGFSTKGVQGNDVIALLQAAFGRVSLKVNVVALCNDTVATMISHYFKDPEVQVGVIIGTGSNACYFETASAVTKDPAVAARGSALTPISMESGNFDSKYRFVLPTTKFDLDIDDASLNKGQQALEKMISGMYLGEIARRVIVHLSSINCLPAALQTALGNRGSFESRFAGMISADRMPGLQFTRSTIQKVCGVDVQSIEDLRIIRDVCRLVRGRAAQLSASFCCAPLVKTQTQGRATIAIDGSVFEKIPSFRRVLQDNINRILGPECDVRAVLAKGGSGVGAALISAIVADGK

[13] = target: SWI/SNF-related matrix-associated actin-dependent regulator of chromatin subfamily A member 2 (Homo sapiens, UniProt P51531); assay: Luminescence-based cell-based high throughput dose response assay to identify activators of the function of SWI/SNF related, matrix associated, actin dependent regulator of chromatin, subfamily a, member 2 (SMARCA2, BRM).; type: functional
SWI/SNF-related matrix-associated actin-dependent regulator of chromatin subfamily A member 2, sequence (P51531 whole entry, the tested form may be a part): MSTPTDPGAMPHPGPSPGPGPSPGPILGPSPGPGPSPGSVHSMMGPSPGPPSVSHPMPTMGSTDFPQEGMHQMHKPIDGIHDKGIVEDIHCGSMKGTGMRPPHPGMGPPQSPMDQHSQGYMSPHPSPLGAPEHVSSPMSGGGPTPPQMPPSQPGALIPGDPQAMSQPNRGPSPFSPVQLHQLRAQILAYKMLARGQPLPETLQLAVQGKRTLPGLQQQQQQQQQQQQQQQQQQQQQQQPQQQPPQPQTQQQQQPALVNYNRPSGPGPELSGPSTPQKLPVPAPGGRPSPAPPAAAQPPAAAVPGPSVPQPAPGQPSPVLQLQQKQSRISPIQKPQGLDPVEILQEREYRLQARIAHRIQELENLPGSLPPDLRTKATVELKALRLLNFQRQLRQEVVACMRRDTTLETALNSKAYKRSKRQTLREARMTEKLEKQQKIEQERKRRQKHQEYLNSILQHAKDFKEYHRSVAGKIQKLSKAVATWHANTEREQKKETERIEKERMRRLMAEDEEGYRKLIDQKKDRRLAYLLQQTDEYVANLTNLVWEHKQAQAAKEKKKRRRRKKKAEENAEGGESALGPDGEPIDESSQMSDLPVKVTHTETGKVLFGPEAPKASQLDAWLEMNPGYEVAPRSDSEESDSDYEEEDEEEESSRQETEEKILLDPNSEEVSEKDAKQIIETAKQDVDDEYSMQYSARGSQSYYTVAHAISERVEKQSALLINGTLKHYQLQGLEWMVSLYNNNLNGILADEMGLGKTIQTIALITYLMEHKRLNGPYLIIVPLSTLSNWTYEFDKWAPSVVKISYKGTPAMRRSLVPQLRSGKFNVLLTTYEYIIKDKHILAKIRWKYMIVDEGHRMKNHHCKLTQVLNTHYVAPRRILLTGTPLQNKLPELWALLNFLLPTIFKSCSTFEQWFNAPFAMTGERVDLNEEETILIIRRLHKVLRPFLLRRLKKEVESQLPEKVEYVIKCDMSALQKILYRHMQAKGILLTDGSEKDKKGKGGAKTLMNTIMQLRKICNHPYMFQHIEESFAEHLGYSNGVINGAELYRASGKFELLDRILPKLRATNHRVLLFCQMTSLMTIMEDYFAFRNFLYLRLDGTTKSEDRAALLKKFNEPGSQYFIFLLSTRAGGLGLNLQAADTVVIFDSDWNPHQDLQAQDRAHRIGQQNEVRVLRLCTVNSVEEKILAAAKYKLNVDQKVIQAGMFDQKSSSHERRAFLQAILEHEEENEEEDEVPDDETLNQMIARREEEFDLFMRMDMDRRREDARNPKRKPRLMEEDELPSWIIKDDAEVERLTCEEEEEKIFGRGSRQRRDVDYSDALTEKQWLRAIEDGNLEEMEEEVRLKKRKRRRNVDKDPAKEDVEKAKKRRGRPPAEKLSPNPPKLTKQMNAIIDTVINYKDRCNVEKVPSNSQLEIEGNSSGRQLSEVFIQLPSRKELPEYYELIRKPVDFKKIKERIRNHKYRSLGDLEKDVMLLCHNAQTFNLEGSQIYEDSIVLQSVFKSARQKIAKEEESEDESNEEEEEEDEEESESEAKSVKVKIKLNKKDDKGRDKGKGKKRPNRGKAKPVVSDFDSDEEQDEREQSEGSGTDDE

[14] = Fluorescence-based cell-based high throughput dose response assay for inhibitors of the interaction of nucleotide-binding oligomerization domain containing 2 (NOD2) and the receptor-interacting serine-threonine kinase 2 (RIPK2).; type: functional; conditions: Homo sapiens
[15] = target: Glucose-6-phosphate 1-dehydrogenase (Homo sapiens, UniProt P11413); assay: human G6PD enzyme inhibitors, dose response, selectivity assay for P. falciparum G6PD inhibitor project, biochemical, fluorescence (AID 504792); type: functional
Glucose-6-phosphate 1-dehydrogenase, sequence (P11413 whole entry): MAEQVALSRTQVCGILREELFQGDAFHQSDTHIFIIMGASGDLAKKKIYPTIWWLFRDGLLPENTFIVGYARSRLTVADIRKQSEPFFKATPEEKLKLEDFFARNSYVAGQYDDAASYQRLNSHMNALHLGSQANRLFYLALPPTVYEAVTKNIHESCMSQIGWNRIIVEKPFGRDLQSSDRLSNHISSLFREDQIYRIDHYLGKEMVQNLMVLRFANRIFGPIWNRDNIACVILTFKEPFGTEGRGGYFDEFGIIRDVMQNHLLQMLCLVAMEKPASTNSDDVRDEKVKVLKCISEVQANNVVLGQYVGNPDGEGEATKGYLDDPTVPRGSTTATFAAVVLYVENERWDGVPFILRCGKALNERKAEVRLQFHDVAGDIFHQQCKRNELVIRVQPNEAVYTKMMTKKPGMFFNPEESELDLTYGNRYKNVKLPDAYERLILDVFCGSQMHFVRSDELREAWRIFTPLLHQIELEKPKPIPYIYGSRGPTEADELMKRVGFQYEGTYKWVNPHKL

[16] = target: T3, Rac GTPase-activating protein 1 (Homo sapiens, UniProt Q9H0H5); assay: MgcRacGAP GTPase-activating activity inhibitors, confirmation, biochemical, ADP Hunter fluorescence, primary and confirmatory (AID 624330); type: functional
T3 sequence (Q9H0H5 whole entry): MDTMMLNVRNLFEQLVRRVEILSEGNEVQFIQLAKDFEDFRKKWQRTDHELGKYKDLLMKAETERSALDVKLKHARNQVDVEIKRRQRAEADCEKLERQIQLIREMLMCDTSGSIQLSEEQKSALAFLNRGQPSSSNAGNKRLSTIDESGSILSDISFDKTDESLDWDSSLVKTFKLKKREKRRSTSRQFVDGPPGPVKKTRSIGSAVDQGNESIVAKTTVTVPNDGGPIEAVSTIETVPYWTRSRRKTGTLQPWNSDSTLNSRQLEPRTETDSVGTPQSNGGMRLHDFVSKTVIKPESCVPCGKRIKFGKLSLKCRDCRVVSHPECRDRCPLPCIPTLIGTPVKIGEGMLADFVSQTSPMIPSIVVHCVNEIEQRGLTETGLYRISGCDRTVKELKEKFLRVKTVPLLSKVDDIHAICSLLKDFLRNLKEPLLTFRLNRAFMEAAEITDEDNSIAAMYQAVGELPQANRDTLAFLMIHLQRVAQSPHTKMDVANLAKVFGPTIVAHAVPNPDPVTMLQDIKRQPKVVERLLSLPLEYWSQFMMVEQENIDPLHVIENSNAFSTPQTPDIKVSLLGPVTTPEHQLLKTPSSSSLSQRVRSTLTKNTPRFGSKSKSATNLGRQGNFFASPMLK

[17] = Counterscreen for activators of the function of SWI/SNF related, matrix associated, actin dependent regulator of chromatin, subfamily a, member 2 (SMARCA2, BRM): Luminescence-based cell-based high throughput dose response assay to identify non-selective compounds using the VP16 reporter assay.; type: functional

5-hydroxytryptamine receptor 2A, sequence (P35363 whole entry): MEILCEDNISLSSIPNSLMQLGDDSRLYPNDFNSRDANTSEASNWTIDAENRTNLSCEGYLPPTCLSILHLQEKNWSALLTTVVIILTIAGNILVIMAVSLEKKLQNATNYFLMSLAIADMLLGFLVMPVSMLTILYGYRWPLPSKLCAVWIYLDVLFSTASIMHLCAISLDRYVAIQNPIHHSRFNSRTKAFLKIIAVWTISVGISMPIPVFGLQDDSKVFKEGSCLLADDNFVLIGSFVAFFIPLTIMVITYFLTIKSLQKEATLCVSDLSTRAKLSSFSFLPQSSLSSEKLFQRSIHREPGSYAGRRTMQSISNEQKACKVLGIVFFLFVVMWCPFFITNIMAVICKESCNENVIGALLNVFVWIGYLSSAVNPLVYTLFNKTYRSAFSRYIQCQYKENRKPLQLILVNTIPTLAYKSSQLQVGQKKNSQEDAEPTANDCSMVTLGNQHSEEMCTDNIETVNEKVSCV

## c1ccc(CN2CCN(c3ncccn3)CC2)cc1
[1]
  EC50: 0.235 µM (active)
Mu-type opioid receptor
  EC50: 92.5 µM (inactive)

## S=C(Nc1ccc2nsnc2c1)N1CCCC1
[2]
  IC50: > 128 µM (inactive)

## O=[N+]([O-])c1ccccc1-c1cc(-c2ccccc2O)n[nH]1
[3]
  AC50: 7.59 µM (active)
[4]
  AC50: 26 µM (active)

## CCCOc1ccc(OCCOCCN2CCc3ccccc3C2)cc1
[5]
  IC50: > 3.32 µM (active)
[6]
  EC50: > 30 µM (not active)
[7]
  EC50: 0.205 µM (active)
Cells [8]
  EC50: > 29.9 µM (inactive)
Cells [9]
  IC50: > 29.9 µM (inactive)
[10]
  EC50: 2.08 µM (active)

## CCOC(=O)c1sc(NC(=O)c2sccc2C)cc1C
[11]
  EC50: 0.409 µM (active)
[12]
  EC50: 3.04 µM (active)
[4]
  AC50: 12.8 µM (active)

## O=C(Cn1sc2ccccc2c1=O)Nc1ccc(F)cc1
Beta Lactamase
  IC50: 19.3 µM (inactive)
Hexokinase
  IC50: 6.23 µM (active)
[13]
  EC50: > 91.1 µM (inactive)
[14]
  IC50: 9.51 µM (active)
[15]
  IC50: 14.9 µM (active)
[16]
  IC50: 56.2 µM (active)
[17]
  EC50: > 91.1 µM (inactive)
